# Results as given in ChEMBL document CHEMBL5620399, “Discovery of orally active sulfonylphenyl thieno[3,2-d]pyrimidine derivatives as GPR119 agonists” (Eur J Med Chem, 2023).
# Experiments:
# [1] = target: T1, Glucose-dependent insulinotropic receptor (Homo sapiens, UniProt Q8TDV5); experiment: Agonist activity at human GPR119 expressed in CHO-K1 cells preincubated for 5 hrs followed by substrate addition measured after 2 hrs by fluorescence based assay; type: functional, cell-based
# T1 sequence (Q8TDV5 whole entry): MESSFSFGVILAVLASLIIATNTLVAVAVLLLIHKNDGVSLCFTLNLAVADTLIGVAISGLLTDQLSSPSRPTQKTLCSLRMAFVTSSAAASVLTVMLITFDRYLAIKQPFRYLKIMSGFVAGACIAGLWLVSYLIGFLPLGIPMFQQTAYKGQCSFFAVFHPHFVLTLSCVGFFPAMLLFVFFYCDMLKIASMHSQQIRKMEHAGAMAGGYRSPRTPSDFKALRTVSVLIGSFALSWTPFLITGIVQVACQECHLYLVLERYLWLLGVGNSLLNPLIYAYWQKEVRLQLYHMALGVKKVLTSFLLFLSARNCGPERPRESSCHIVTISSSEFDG
# [2] = Agonist activity at GPR119 in Golden hamster HIT-T15 cells assessed as increase in intracellular cAMP level incubated for 1 hr by fluorescence based assay; type: cell-based; conditions: Mesocricetus auratus, HIT-T15, 1 h
# [3] = Microsomal stability in human liver microsomes assessed as compound remaining at 5 uM measured after 60 mins in presence of NADPH by HPLC analysis; type: ADME, Microsome; conditions: read-out: Stability
# [4] = Microsomal stability in dog liver microsomes assessed as compound remaining at 5 uM measured after 60 mins in presence of NADPH by HPLC analysis; type: ADME, Canis lupus familiaris, Microsome; conditions: read-out: Stability
# [5] = Microsomal stability in rat liver microsomes assessed as compound remaining at 5 uM measured after 60 mins in presence of NADPH by HPLC analysis; type: ADME, Microsome; conditions: read-out: Stability
# [6] = Microsomal stability in mouse liver microsomes assessed as compound remaining at 5 uM measured after 60 mins in presence of NADPH by HPLC analysis; type: ADME, Microsome; conditions: read-out: Stability
# Cytochrome P450 3A4 = Cytochrome P450 3A4 (Homo sapiens, UniProt P08684); experiment: Inhibition of CYP3A4 (unknown origin) using 7-benzyloxy-4-trifluoromethylcoumarin as substrate preincubated for 10 mins followed by addition of NADPH generating system measured after 30 mins by fluorescence based assay; type: ADME
# Cytochrome P450 1A2 = target: T2, Cytochrome P450 1A2 (Homo sapiens, UniProt P05177); experiment: Inhibition of CYP1A2 (unknown origin) using 7-ethoxy-3-cyanocoumarin as substrate preincubated for 10 mins followed by addition of NADPH generating system measured after 30 mins by fluorescence based assay; type: ADME
# T2 sequence (P05177 whole entry): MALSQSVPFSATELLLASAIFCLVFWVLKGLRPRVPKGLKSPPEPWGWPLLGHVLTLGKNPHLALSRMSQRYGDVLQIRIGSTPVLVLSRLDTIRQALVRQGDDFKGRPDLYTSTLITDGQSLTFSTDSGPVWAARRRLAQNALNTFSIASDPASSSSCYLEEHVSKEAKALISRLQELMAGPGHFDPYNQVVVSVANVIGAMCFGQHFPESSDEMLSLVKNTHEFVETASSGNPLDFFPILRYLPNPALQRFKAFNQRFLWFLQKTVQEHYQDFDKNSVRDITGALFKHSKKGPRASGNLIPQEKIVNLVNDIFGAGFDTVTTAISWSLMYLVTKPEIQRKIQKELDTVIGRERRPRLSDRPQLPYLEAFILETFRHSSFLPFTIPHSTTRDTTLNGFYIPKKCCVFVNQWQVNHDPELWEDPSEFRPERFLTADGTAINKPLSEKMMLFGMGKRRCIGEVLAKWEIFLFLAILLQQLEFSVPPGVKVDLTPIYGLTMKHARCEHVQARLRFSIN
# Cytochrome P450 2C9 = Cytochrome P450 2C9 (Homo sapiens, UniProt P11712); experiment: Inhibition of CYP2C9 (unknown origin) using 7-methoxy-4-trifluoromethylcoumarin as substrate preincubated for 10 mins followed by addition of NADPH generating system measured after 30 mins by fluorescence based assay; type: ADME
# Cytochrome P450 2C19 = Cytochrome P450 2C19 (Homo sapiens, UniProt P33261); experiment: Inhibition of CYP2C19 (unknown origin) using 7-ethoxy-3-cyanocoumarin as substrate preincubated for 10 mins followed by addition of NADPH generating system measured after 30 mins by fluorescence based assay; type: ADME
# Cytochrome P450 2D6 = Cytochrome P450 2D6 (Homo sapiens, UniProt P10635); experiment: Inhibition of CYP2D6 (unknown origin) using 3-[2-(N,N-diethyl-N-methylammonium)ethyl]-7-methoxy-4-methylcoumarin as substrate preincubated for 10 mins followed by addition of NADPH generating system measured after 30 mins by fluorescence based assay; type: ADME
# [7] = Half life in ICR mouse at 1 mg/kg, iv; type: ADME, organism-based; conditions: in vivo
# [8] = AUC (0 to 24 hrs) in ICR mouse at 1 mg/kg, iv; type: ADME, organism-based; conditions: in vivo
# [9] = Clearance in ICR mouse at 1 mg/kg, iv; type: ADME, organism-based; conditions: in vivo
# [10] = Volume of distribution in ICR mouse at 1 mg/kg, iv; type: ADME, organism-based; conditions: in vivo
# [11] = MRTlast in ICR mouse at 1 mg/kg, iv; type: ADME, organism-based; conditions: in vivo
# [12] = Cmax in ICR mouse at 10 mg/kg, po; type: ADME, organism-based; conditions: in vivo
# [13] = Tmax in ICR mouse at 10 mg/kg, po; type: ADME, organism-based; conditions: in vivo
# [14] = Half life in ICR mouse at 10 mg/kg, po; type: ADME, organism-based; conditions: in vivo
# [15] = AUC (0 to 24 hrs) in ICR mouse at 10 mg/kg, po; type: ADME, organism-based; conditions: in vivo
# [16] = MRTlast in ICR mouse at 10 mg/kg, po; type: ADME, organism-based; conditions: in vivo
# [17] = Oral bioavailability in ICR mouse at 10 mg/kg; type: ADME, organism-based; conditions: in vivo
# [18] = Half life in Sprague-Dawley rat at 1 mg/kg, iv; type: ADME, organism-based; conditions: in vivo
# [19] = AUC (0 to 24 hrs) in Sprague-Dawley rat at 1 mg/kg, iv; type: ADME, organism-based; conditions: in vivo
# [20] = Clearance in Sprague-Dawley rat at 1 mg/kg, iv; type: ADME, organism-based; conditions: in vivo
# [21] = Volume of distribution in Sprague-Dawley rat at 1 mg/kg, iv; type: ADME, organism-based; conditions: in vivo
# [22] = MRTlast in Sprague-Dawley rat at 1 mg/kg, iv; type: ADME, organism-based; conditions: in vivo
# [23] = Cmax in Sprague-Dawley rat at 5 mg/kg, po; type: ADME, organism-based; conditions: in vivo
# [24] = Tmax in Sprague-Dawley rat at 5 mg/kg, po; type: ADME, organism-based; conditions: in vivo
# [25] = Half life in Sprague-Dawley rat at 5 mg/kg, po; type: ADME, organism-based; conditions: in vivo
# [26] = AUC (0 to 24 hrs) in Sprague-Dawley rat at 5 mg/kg, po; type: ADME, organism-based; conditions: in vivo
# [27] = MRTlast in Sprague-Dawley rat at 5 mg/kg, po; type: ADME, organism-based; conditions: in vivo
# [28] = Oral bioavailability in Sprague-Dawley rat at 5 mg/kg; type: ADME, organism-based; conditions: in vivo
# Mus musculus = experiment: Anti-diabetic activity in C57BL mouse assessed as reduction in AUC (0 to 2 hrs) at 3 mg/kg, po followed by oral administration of glucose measured for 2 hrs by OGTT assay relative to control; type: functional; design: scale not given: the % may be the effect or the level left
# Rattus norvegicus = experiment: Anti-diabetic activity in Sprague-Dawley rat assessed as reduction in AUC (0 to 2 hrs) at 3 mg/kg, po followed by oral administration of glucose measured for 2 hrs by OGTT assay relative to control; type: functional; design: scale not given: the % may be the effect or the level left
# Chain of Cytochrome P450 2C9 (P11712 whole entry): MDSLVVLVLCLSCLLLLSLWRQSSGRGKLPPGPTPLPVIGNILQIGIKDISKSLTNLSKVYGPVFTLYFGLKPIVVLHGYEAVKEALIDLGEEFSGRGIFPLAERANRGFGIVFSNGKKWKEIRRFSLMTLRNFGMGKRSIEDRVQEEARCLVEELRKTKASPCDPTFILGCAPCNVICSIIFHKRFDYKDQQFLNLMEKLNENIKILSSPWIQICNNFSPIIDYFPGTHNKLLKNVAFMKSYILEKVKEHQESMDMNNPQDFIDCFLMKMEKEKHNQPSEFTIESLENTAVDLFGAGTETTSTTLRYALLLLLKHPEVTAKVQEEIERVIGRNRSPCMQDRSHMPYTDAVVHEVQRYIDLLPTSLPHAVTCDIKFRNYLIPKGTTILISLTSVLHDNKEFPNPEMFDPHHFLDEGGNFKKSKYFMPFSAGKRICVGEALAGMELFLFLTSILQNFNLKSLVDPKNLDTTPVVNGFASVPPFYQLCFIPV
# Chain of Cytochrome P450 2D6 (P10635 whole entry): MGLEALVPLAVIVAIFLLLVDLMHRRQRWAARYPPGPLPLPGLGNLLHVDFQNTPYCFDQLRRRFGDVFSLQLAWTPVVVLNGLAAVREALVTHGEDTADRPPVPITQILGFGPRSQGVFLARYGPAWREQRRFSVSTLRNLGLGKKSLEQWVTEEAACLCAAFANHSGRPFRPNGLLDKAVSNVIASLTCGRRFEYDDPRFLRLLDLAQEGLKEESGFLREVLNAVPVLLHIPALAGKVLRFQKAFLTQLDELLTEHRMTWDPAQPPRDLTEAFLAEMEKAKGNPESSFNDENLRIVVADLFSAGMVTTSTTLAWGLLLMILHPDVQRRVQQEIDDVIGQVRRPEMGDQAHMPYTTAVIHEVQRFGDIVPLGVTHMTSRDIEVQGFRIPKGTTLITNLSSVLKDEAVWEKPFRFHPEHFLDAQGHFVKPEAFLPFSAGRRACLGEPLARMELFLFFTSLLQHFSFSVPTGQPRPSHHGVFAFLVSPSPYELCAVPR
# Chain of Cytochrome P450 3A4 (P08684 whole entry): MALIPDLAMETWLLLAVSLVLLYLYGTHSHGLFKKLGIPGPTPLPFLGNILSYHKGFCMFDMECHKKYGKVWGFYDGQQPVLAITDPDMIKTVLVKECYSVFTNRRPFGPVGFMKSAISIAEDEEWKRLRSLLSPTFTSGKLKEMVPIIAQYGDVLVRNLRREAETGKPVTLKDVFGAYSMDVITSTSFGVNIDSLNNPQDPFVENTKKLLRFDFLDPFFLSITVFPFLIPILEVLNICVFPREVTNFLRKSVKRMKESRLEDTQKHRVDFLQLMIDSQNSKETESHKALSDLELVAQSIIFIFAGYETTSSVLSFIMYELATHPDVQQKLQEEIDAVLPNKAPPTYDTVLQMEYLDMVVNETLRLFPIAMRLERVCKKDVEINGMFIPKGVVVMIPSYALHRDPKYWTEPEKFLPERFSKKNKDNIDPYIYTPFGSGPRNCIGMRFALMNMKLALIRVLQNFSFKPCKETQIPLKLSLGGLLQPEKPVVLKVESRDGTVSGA
# Chain of Cytochrome P450 2C19 (P33261 whole entry): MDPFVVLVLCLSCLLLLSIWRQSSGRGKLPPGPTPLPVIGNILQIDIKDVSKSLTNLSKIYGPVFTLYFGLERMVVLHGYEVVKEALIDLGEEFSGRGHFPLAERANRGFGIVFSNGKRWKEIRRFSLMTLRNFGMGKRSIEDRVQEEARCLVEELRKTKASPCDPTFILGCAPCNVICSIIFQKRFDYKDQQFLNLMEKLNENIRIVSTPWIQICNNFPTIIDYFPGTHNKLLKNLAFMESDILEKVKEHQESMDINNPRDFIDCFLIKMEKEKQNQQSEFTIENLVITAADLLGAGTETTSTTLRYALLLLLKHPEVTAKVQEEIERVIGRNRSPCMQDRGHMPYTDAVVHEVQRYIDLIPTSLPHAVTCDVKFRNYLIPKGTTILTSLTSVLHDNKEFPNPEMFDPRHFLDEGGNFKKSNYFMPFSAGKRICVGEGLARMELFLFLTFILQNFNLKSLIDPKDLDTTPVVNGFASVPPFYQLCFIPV
smiles,measurement,setting,value
CC(C)(C)OC(=O)N1CCC(Nc2ncnc3c(-c4ccc(S(C)(=O)=O)cc4)csc23)CC1,EC50,[1],> 100 nM
CN(c1ncnc2c(-c3ccc(S(C)(=O)=O)cc3)csc12)C1CCN(C(=O)OC(C)(C)C)CC1,EC50,[1],33.8 nM
same,EC50,[2],19.1 nM
CCc1cnc(N2CCC(N(C)c3ncnc4c(-c5ccc(S(C)(=O)=O)cc5)csc34)CC2)nc1,EC50,[1],7.4 nM
same,EC50,[2],35.9 nM
CS(=O)(=O)c1ccc(-c2csc3c(OC4CCNCC4)ncnc23)c(F)c1,EC50,[1],> 100 nM
CCN(c1ncnc2c(-c3ccc(S(C)(=O)=O)cc3)csc12)C1CCN(c2ccc(C(F)(F)F)cn2)CC1,EC50,[1],> 100 nM
CS(=O)(=O)c1ccc(-c2csc3c(N4CCCCC4)ncnc23)cc1,EC50,[1],> 100 nM
CC(C)c1noc(N2CCC(Oc3ncnc4c(-c5ccc(S(C)(=O)=O)cc5F)csc34)CC2)n1,EC50,[1],6.3 nM
same,EC50,[2],22.8 nM
same,"remaining at 1 h, 5 µM",[3],35%
same,"remaining at 1 h, 5 µM",[4],62%
same,"remaining at 1 h, 5 µM",[5],48%
same,"remaining at 1 h, 5 µM",[6],38%
same,IC50,Cytochrome P450 3A4,3790 nM
same,IC50,Cytochrome P450 1A2,> 50000 nM
same,IC50,Cytochrome P450 2C9,> 50000 nM
same,IC50,Cytochrome P450 2C19,5550 nM
same,IC50,Cytochrome P450 2D6,> 50000 nM
same,half-life,[7],3.4 h
same,AUC(0-t),[8],2770 ng·h/mL
same,clearance,[9],5 mL/min/kg
same,Vd,[10],1.2 L/kg
same,MRT last,[11],3 h
same,Cmax,[12],9130 ng/mL
same,Tmax,[13],0.5 h
same,half-life,[14],2.2 h
same,AUC(0-t),[15],32700 ng·h/mL
same,MRT last,[16],3.8 h
same,bioavailability,[17],> 100%
same,half-life,[18],2.8 h
same,AUC(0-t),[19],1860 ng·h/mL
same,clearance,[20],5 mL/min/kg
same,Vd,[21],1.2 L/kg
same,MRT last,[22],3.6 h
same,Cmax,[23],1480 ng/mL
same,Tmax,[24],1 h
same,half-life,[25],2.4 h
same,AUC(0-t),[26],5720 ng·h/mL
same,MRT last,[27],3.2 h
same,bioavailability,[28],61.5%
same,Activity,Mus musculus,37.4%
same,Activity,Rattus norvegicus,15%
CS(=O)(=O)c1ccc(-c2csc3c(N4CCC(c5nc(C6CCCCC6)no5)CC4)ncnc23)cc1,EC50,[1],12.5 nM
same,EC50,[2],32.5 nM
CS(=O)(=O)c1ccc(-c2csc3c(OC4CCN(c5nc(C6CC6)no5)CC4)ncnc23)cc1,EC50,[1],24.8 nM
same,EC50,[2],47 nM
CCc1cnc(N2CCC(N(CC)c3ncnc4c(-c5ccc(S(C)(=O)=O)cc5)csc34)CC2)nc1,EC50,[1],15 nM
same,EC50,[2],153 nM
CN1CCC(Oc2ncnc3c(-c4ccc(S(C)(=O)=O)cc4F)csc23)CC1,EC50,[1],> 100 nM
CCN(c1ncnc2c(-c3ccc(S(C)(=O)=O)cc3)csc12)C1CCN(C(=O)OC(C)(C)C)CC1,EC50,[1],> 100 nM
CS(=O)(=O)c1ccc(-c2csc3c(OC4CCN(c5nc(C6CCCC6)no5)CC4)ncnc23)cc1,EC50,[1],5.6 nM
same,EC50,[2],> 1000 nM
CS(=O)(=O)c1ccc(-c2csc3c(N4CCCC4)ncnc23)cc1,EC50,[1],> 100 nM
CC(C)c1noc(N2CCC(Oc3ncnc4c(-c5ccc(S(C)(=O)=O)cc5)csc34)C2)n1 (configuration not stated),EC50,[1],754 nM
CC(C)(C)OC(=O)N1CCC(Oc2ncnc3c(-c4ccc(S(C)(=O)=O)cc4F)csc23)CC1,EC50,[1],1.4 nM
CC(C)c1noc(C2CCN(c3ncnc4c(-c5ccc(S(C)(=O)=O)cc5)csc34)CC2)n1,EC50,[1],11.7 nM
same,EC50,[2],11.5 nM
same,"remaining at 1 h, 5 µM",[3],13%
same,"remaining at 1 h, 5 µM",[4],6%
same,"remaining at 1 h, 5 µM",[6],21%
same,IC50,Cytochrome P450 3A4,12000 nM
same,IC50,Cytochrome P450 1A2,> 50000 nM
same,IC50,Cytochrome P450 2C9,< 620 nM
same,IC50,Cytochrome P450 2C19,3680 nM
same,IC50,Cytochrome P450 2D6,> 50000 nM
CC(C)(C)c1noc(N2CCC(Oc3ncnc4c(-c5ccc(S(C)(=O)=O)cc5F)csc34)CC2)n1,EC50,[1],3.6 nM
CCc1cnc(N2CCC(Oc3ncnc4c(-c5ccc(S(C)(=O)=O)cc5)csc34)C2)nc1 (configuration not stated),EC50,[1],74.8 nM
CCCc1noc(N2CCC(Oc3ncnc4c(-c5ccc(S(C)(=O)=O)cc5F)csc34)CC2)n1,EC50,[1],2.1 nM
CS(=O)(=O)c1ccc(-c2csc3c(N4CCC(c5nc(C6CCCC6)no5)CC4)ncnc23)cc1,EC50,[1],8.7 nM
same,EC50,[2],16 nM
same,"remaining at 1 h, 5 µM",[4],10%
same,"remaining at 1 h, 5 µM",[5],9%
same,"remaining at 1 h, 5 µM",[6],23%
CS(=O)(=O)c1ccc(-c2csc3c(N4CCC(c5nc(C6CCCC6)no5)CC4)ncnc23)c(F)c1,EC50,[1],1.9 nM
same,EC50,[2],86.3 nM
CS(=O)(=O)c1ccc(-c2csc3c(N4CCC(c5nc(C6CC6)no5)CC4)ncnc23)cc1,EC50,[1],23.9 nM
same,EC50,[2],16.8 nM
CCc1cnc(N2CCC(c3nc(COc4ccc(-n5cnnn5)cc4)cs3)CC2)nc1 [MBX-2982],EC50,[1],3.1 nM
same,EC50,[2],2 nM
same,Activity,Mus musculus,29%
same,Activity,Rattus norvegicus,7.3%
